Patent US10501460B2, “Heterocyclic compounds and uses thereof” (Plexxikon Inc., priority 2013, dated 2019)

Columns and labels:
bromodomain = test: Bromodomain cell assays of Example 40 (at least one of them); format: cell-based; details: in at least one of the bromodomain cell assays described in Example 40
How it was run: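 Growth inhibition: 3000 MV-4-11, MOLM-13, MM.1S or neuroblastoma cells/well got an 8-point 1:3 series from 10 μM top (0.2% DMSO) for 72 h, then CellTiter-Glo luminescence. Myc reporter: MV-4-11 with E-box firefly luciferase, 24 h exposure, One-Glo luminescence plus CellTiter-Fluo cell count. pIC50 from four-parameter fit.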

MV-4-11 = test: Oncology cell growth assay MV-4-11 (CellTiter Glo, 72 hours); format: cell-based; details: Homo sapiens, MV4-11, 72 h; MV-4-11 cell growth inhibitory activity, 3d
How it was run: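 MV-4-11 cells (MLL-AF4 AML) exposed 72 h to 8-point 1:3 titration, top final 10 μM, 0.2% DMSO. CellTiter Glo luminescence as cell-number readout, normalized to DMSO controls; pIC50 from four-parameter fit.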

| Compound | IC50 (bromodomain) [µM] | IC50 (MV-4-11) [µM] |
| --- | --- | --- |
| Cc1noc(C)c1-c1cnc2[nH]cc([S+]([O-])c3cccc(F)c3)c2c1 (stereo not shown) [P-0142, 4-[3-(3-fluorophenyl)sulfinyl-1H-pyrrolo[2,3-b]pyridin-5-yl]-3,5-dimethyl-isoxazole] | < 10 | 1 to 10 |
| Cc1noc(C)c1-c1cnc2[nH]cc(S(=O)(=O)c3cccc(F)c3)c2c1 [P-0143, 4-[3-(3-fluorophenyl)sulfonyl-1H-pyrrolo[2,3-b]pyridin-5-yl]-3,5-dimethyl-isoxazole] | < 10 | ≤ 1 |
| Cc1noc(C)c1-c1cnc2[nH]cc(Sc3ccccc3)c2c1 [P-0144, 3,5-dimethyl-4-(3-phenylsulfanyl-1H-pyrrolo[2,3-b]pyridin-5-yl)isoxazole] | < 10 | 1 to 10 |
| Cc1noc(C)c1-c1cnc2[nH]cc(S(=O)(=O)c3ccccc3)c2c1 [P-0145, 4-[3-(benzenesulfonyl)-1H-pyrrolo[2,3-b]pyridin-5-yl]-3,5-dimethyl-isoxazole] | < 10 | ≤ 1 |
| Cc1noc(C)c1-c1cnc2c(-c3cnn(CC(F)(F)F)c3)cn(S(=O)(=O)c3ccccc3)c2c1 [P-0146, 4-[1-(benzenesulfonyl)-3-[1-(2,2,2-trifluoroethyl)pyrazol-4-yl]pyrrolo[3,2-b]pyridin-6-yl]-3,5-dimethyl-isoxazole] | < 10 | ≤ 1 |
| COCCn1cc(-c2cn(S(=O)(=O)c3ccccc3)c3cc(-c4c(C)noc4C)cnc23)cn1 [P-0147, 4-[1-(benzenesulfonyl)-3-[1-(2-methoxyethyl)pyrazol-4-yl]pyrrolo[3,2-b]pyridin-6-yl]-3,5-dimethyl-isoxazole] | < 10 | ≤ 1 |
| Cc1noc(C)c1-c1cnc2c(-c3cnn(C4CCOC4)c3)cn(S(=O)(=O)c3ccccc3)c2c1 (stereo not shown) [P-0148, 4-[1-(benzenesulfonyl)-3-(1-tetrahydrofuran-3-ylpyrazol-4-yl)pyrrolo[3,2-b]pyridin-6-yl]-3,5-dimethyl-isoxazole] | < 10 | ≤ 1 |
| Cc1noc(C)c1-c1cnc2c(-c3cnn(CC(F)(F)F)c3)cn(S(=O)(=O)C3CCCC3)c2c1 [P-0149, 4-[1-cyclopentylsulfonyl-3-[1-(2,2,2-trifluoroethyl)pyrazol-4-yl]pyrrolo[3,2-b]pyridin-6-yl]-3,5-dimethyl-isoxazole] | < 10 | ≤ 1 |
| CCCS(=O)(=O)n1cc(-c2cnn(CC(F)(F)F)c2)c2ncc(-c3c(C)noc3C)cc21 [P-0150, 3,5-dimethyl-4-[1-propylsulfonyl-3-[1-(2,2,2-trifluoroethyl)pyrazol-4-yl]pyrrolo[3,2-b]pyridin-6-yl]isoxazole] | < 10 | ≤ 1 |
| COCCn1cc(-c2cn(S(=O)(=O)C3CCCC3)c3cc(-c4c(C)noc4C)cnc23)cn1 [P-0151, 4-[1-cyclopentylsulfonyl-3-[1-(2-methoxyethyl)pyrazol-4-yl]pyrrolo[3,2-b]pyridin-6-yl]-3,5-dimethyl-isoxazole] | < 10 | ≤ 1 |
| CCCS(=O)(=O)n1cc(-c2cnn(CCOC)c2)c2ncc(-c3c(C)noc3C)cc21 [P-0152, 4-[3-[l-(2-methoxyethyl)pyrazol-4-yl]-1-propylsulfonyl-pyrrolo [3,2-b]pyridin-6-yl]-3,5-dimethyl-isoxazole] | < 10 | ≤ 1 |
| Cc1noc(C)c1-c1cnc2c(-c3cnn(C4CCOC4)c3)cn(S(=O)(=O)C3CCCC3)c2c1 (stereo not shown) [P-0153, 4-[1-cyclopentylsulfonyl-3-(1-tetrahydrofuran-3-ylpyrazol-4-yl)pyrrolo [3,2-b]pyridin-6-yl]-3,5-dimethyl-isoxazole] | < 10 | ≤ 1 |
| CCCS(=O)(=O)n1cc(-c2cnn(C3CCOC3)c2)c2ncc(-c3c(C)noc3C)cc21 (stereo not shown) [P-0154, 3,5-dimethyl-4-[1-propylsulfonyl-3-(1-tetrahydrofuran-3-ylpyrazol-4-yl)pyrrolo [3,2-b]pyridin-6-yl] isoxazole] | < 10 | ≤ 1 |
| Cc1noc(C)c1-c1cnc2c(C#CCO)cn(S(=O)(=O)C3CCCC3)c2c1 [P-0156, 3-[1-cyclopentylsulfonyl-6-(3,5-dimethylisoxazol-4-yl)pyrrolo[3,2-b]pyridin-3-yl]prop-2-yn-1-ol] | < 10 | ≤ 1 |
| Cc1noc(C)c1-c1cnc2c(C#CCF)cn(S(=O)(=O)C3CCCC3)c2c1 [P-0158, 4-[1-cyclopentylsulfonyl-3-(3-fluoroprop-1-ynyl)pyrrolo[3,2-b]pyridin-6-yl]-3,5-dimethyl-isoxazole] | < 10 | ≤ 1 |
| Cc1noc(C)c1-c1cnc2ccn(C(C)c3ccccc3)c2c1 (stereo not shown) [P-0159, 3,5-dimethyl-4-[1-(1-phenylethyl)pyrrolo[3,2-b]pyridin-6-yl]isoxazole] | < 10 | ≤ 1 |
| C=CCn1cc(-c2cn(Cc3ccccc3)c3cc(-c4c(C)noc4C)cnc23)cn1 [P-0160, 4-[3-(1-allylpyrazol-4-yl)-1-benzyl-pyrrolo[3,2-b]pyridin-6-yl]-3,5-dimethyl-isoxazole] | < 10 | ≤ 1 |

Second part, the molecule after the results:

| IC50 (bromodomain) [µM] | IC50 (MV-4-11) [µM] | Compound |
| --- | --- | --- |
| < 10 | ≤ 1 | CCn1cc(-c2cn(S(=O)(=O)c3ccccc3F)c3cc(-c4c(C)noc4C)cnc23)cn1 [P-0125, 4-[3-(1-ethylpyrazol-4-yl)-1-(2-fluorophenyl)sulfonyl-pyrrolo[3,2-b]pyridin-6-yl]-3,5-dimethyl-isoxazole] |
| < 10 | ≤ 1 | C=CCn1cc(-c2cn(S(=O)(=O)c3ccccc3)c3cc(-c4c(C)noc4C)cnc23)cn1 [P-0126, 4-[3-(1-allylpyrazol-4-yl)-1-(benzenesulfonyl)pyrrolo [3,2-b]pyridin-6-yl]-3,5-dimethyl-isoxazole] |
| < 10 | ≤ 1 | C=CCn1cc(-c2cn(S(=O)(=O)c3ccccc3F)c3cc(-c4c(C)noc4C)cnc23)cn1 [P-0127, 4-[3-(1-allylpyrazol-4-yl)-1-(2-fluorophenyl)sulfonyl-pyrrolo[3,2-b]pyridin-6-yl]-3,5-dimethyl-isoxazole] |
| < 10 | ≤ 1 | C=CCn1cc(-c2cn(S(=O)(=O)C3CCCC3)c3cc(-c4c(C)noc4C)cnc23)cn1 [P-0128, 4-[3-(1-allylpyrazol-4-yl)-1-cyclopentylsulfonyl-pyrrolo [3,2-b]pyridin-6-yl]-3,5-dimethyl-isoxazole] |
| < 10 | ≤ 1 | C=CCn1cc(-c2cn(S(=O)(=O)CCC(F)(F)F)c3cc(-c4c(C)noc4C)cnc23)cn1 [P-0129, 4-[3-(1-allylpyrazol-4-yl)-1-(3,3,3-trifluoropropylsulfonyl)pyrrolo[3,2-b]pyridin-6-yl]-3,5-dimethyl-isoxazole] |
| < 10 | ≤ 1 | Cc1noc(C)c1-c1cnc2c(-c3cnn(C(F)F)c3)cn(S(=O)(=O)c3ccccc3)c2c1 [P-0131, 4-[1-(benzenesulfonyl)-3-[1-(difluoromethyl)pyrazol-4-yl]pyrrolo[3,2-b]pyridin-6-yl]-3,5-dimethyl-isoxazole] |
| < 10 | ≤ 1 | Cc1noc(C)c1-c1cnc2c(-c3cnn(C(F)F)c3)cn(S(=O)(=O)c3ccccc3F)c2c1 [P-0132, 4-[3-[1-(difluoromethyl)pyrazol-4-yl]-1-(2-fluorophenyl)sulfonyl-pyrrolo[3,2-b]pyridin-6-yl]-3,5-dimethyl-isoxazole] |
| < 10 | ≤ 1 | Cc1noc(C)c1-c1cnc2c(-c3cnn(C(F)F)c3)cn(S(=O)(=O)C3CCC3)c2c1 [P-0134, 4-[1-cyclobutylsulfonyl-3-[1-(difluoromethyl)pyrazol-4-yl]pyrrolo[3,2-b]pyridin-6-yl]-3,5-dimethyl-isoxazole] |
| < 10 | ≤ 1 | CCCS(=O)(=O)n1cc(-c2cnn(C(F)F)c2)c2ncc(-c3c(C)noc3C)cc21 [P-0135, 4-[3-[1-(difluoromethyl)pyrazol-4-yl]-1-propylsulfonyl-pyrrolo [3,2-b]pyridin-6-yl]-3,5-dimethyl-isoxazole] |
| < 10 | 1 to 10 | Cc1noc(C)c1-c1cnc2c(-c3cnn(C(F)F)c3)cn(S(=O)(=O)CCC(F)(F)F)c2c1 [P-0136, 4-[3-[1-(difluoromethyl)pyrazol-4-yl]-1-(3,3,3-trifluoropropylsulfonyl)pyrrolo[3,2-b]pyridin-6-yl]-3,5-dimethyl-isoxazole] |
| < 10 | ≤ 1 | C=CCn1cc(-c2cn(S(=O)(=O)CCC)c3cc(-c4c(C)noc4C)cnc23)cn1 [P-0137, 4-[3-(1-allylpyrazol-4-yl)-1-propylsulfonyl-pyrrolo[3,2-b]pyridin-6-yl]-3,5-dimethyl-isoxazole] |
| < 10 | ≤ 1 | C=CCn1cc(-c2cn(S(=O)(=O)C(C)CC)c3cc(-c4c(C)noc4C)cnc23)cn1 (stereo not shown) [P-0138, 4-[3-(1-allylpyrazol-4-yl)-1-sec-butylsulfonyl-pyrrolo[3,2-b]pyridin-6-yl]-3,5-dimethyl-isoxazole] |
| < 10 | ≤ 1 | C=CCn1cc(-c2cn(S(=O)(=O)C3CC3)c3cc(-c4c(C)noc4C)cnc23)cn1 [P-0139, 4-[3-(1-allylpyrazol-4-yl)-1-cyclopropylsulfonyl-pyrrolo[3,2-b]pyridin-6-yl]-3,5-dimethyl-isoxazole] |
| < 10 | ≤ 1 | C=CCn1cc(-c2cn(S(=O)(=O)CC3CC3)c3cc(-c4c(C)noc4C)cnc23)cn1 [P-0140, 4-[3-(1-allylpyrazol-4-yl)-1-(cyclopropylmethylsulfonyl)pyrrolo[3,2-b]pyridin-6-yl]-3,5-dimethyl-isoxazole] |
| < 10 | 1 to 10 | Cc1noc(C)c1-c1cnc2[nH]cc(Sc3cccc(F)c3)c2c1 [P-0141, 4-[3-(3-fluorophenyl)sulfanyl-1H-pyrrolo[2,3-b]pyridin-5-yl]-3,5-dimethyl-isoxazole] |
